Here are results for 88 molecules from a melting point compilation (Tetko et al.; mined from patent text by program, amines drawn as free bases though some values may be those of a salt).

The structures appear in SMILES notation. Bounds are passed on as bounds.

Consider `CCCCC1=NC2(CCCC2)C(=O)N1Cc1ccc(-c2ccccc2S(=O)(=O)Nc2noc(C)c2C)c(CN2CCCC2=O)c1`, for which the melting point fell in the range of 97 to 103 °C.

As to `CC(SC1COC(c2ccc(C(=O)Nc3ccc(C#N)c(Cl)c3)cc2)OC1)C(O)(Cn1cncn1)c1ccc(F)cc1F` (stereo not drawn), the melting point turned out to be 115 °C.

The molecule `Cc1ccc(-c2csc(/C=C/C(=O)Nc3ccc(CN(C)C4CCOCC4)cc3)c2)cc1` had a melting point of 188 to 190 °C.

With `CCNC(=O)c1cccc2c1c(=O)n(Cc1cccnc1)n2C(=O)OCC`, the melting point lay in the range of 197 to 198 °C.

`Cc1ccc(N2CCN(c3c(C)c(C)c4c(c3C)CC(C)O4)CC2)cc1` (stereo not drawn) displayed a melting point of 150 to 151 °C.

`O=c1cc(Nc2ccccc2)[nH]n1-c1ccc(S(=O)(=O)O)cc1` returned a melting point of 290 to 291 °C.

As to `O=C(O)CN1C(=O)C(=Cc2ccc(Cc3cccnc3)s2)SC1=S`, the melting point lay in the range of 254 to 256 °C.

As for `O=C(OC(c1ccc(Cl)c2nc3n(c12)CCCN3c1ccc(Cl)cc1Cl)C1CC1)C1CC1` (stereo not drawn), the melting point lay within 168 to 170 °C.

Molecule `C[C@@H]1CN(CC(=O)Nc2nc3ccccc3n2C)C[C@H](C)N1c1ncnc2sccc12` returned a melting point of 200 °C.

The molecule `COc1ccc2sc(=O)[nH]c2c1` showed a melting point of 168 to 170 °C.

`CC(C)(N)[C@H]1CCN(c2c(F)cc3c(=O)c(C(=O)O)cn(C4CC4)c3c2F)C1`: the melting point is 261 to 264 °C.

`O=c1[nH]ncc2c(O)cccc12` yielded a melting point of 351 to 355 °C.

As to `COC(=O)c1ccc2c(c1)C(=O)CC(C)(COc1ccc([N+](=O)[O-])cc1)O2` (stereo not drawn), the melting point was 144 to 145 °C.

The molecule `COc1cc(NC(=O)c2cc(Br)ccc2O)cc(OC)c1` returned a melting point of 207 to 209 °C.

As for `COc1ccc(N2CCN(c3c(C)c4c(c(OC)c3C)OC(C)C4)CC2)cc1` (stereo not drawn), the melting point was 109 to 111 °C.

Take `O=[N+]([O-])c1cnn2c1-c1ccccc1NC2c1ccccc1` (stereo not drawn): the melting point lay in the range of 157 to 158 °C.

Regarding `Cc1c(SCCN2CCOCC2)ccnc1CSc1nc2ccccc2n1CC(=O)O`, the melting point lay in the range of 223 to 225 °C.

Molecule `Cc1nn(-c2ccc(Cl)c3c2CC(C)O3)c(=O)[nH]1` (stereo not drawn) gave a melting point of 208 to 209 °C.

The molecule `CCOC(=O)CC(=O)c1ccc(F)c(Cl)c1` gave a melting point of 39 to 40 °C.

As to `CCCCCCCN(CCN1CCN(CCSc2nc3ccccc3o2)CC1)C(=O)Nc1c(C(C)C)cccc1C(C)C`, the melting point lay within 110 to 111 °C.

Consider `N#Cc1c(N2CCN(C(=O)c3cccs3)CC2)c2cc(F)cnc2n(Cc2cccc(F)c2)c1=O`, for which the melting point came to 137 °C.

For the molecule `COc1cc(OCCN2CCc3ccccc3C2)ccc1C=NNC(=O)c1ccc(O)c(N)c1`, the melting point lay within 162 to 164 °C.

On to `NC(N)=NC(=O)c1ccc2c(c1)S(=O)(=O)CC2O` (stereo not drawn), for which the melting point was 240 to 241 °C.

The molecule `CC1(C)C=C(C(=O)CCCN2CCC(C(O)(c3ccccc3)c3ccccc3)CC2)C=CC1CCO` (stereo not drawn) yielded a melting point of 135 to 137 °C.

`CC(C)CCN1CCC(N(C)S(=O)(=O)c2ccc(Nc3nccc(Nc4ccc(F)cc4)n3)cc2)CC1` registered a melting point of 184 to 185 °C.

`CNc1c([N+](=O)[O-])cc2c(=O)c(C(=O)O)cn(-c3cc(N)c(F)cc3F)c2c1C` gave a melting point of 275 to 281 °C.

In the case of `COc1cc2ncnc(Nc3cccc(Br)c3)c2cc1O`, the melting point was found to be 299 °C.

Consider `COc1ccc2c(O)cccc2c1`, for which the melting point lay within 73 to 75 °C.

In turn, `CCOc1ccc(Nc2nc(=O)cc(N)n2-c2ccccc2)cc1` returned a melting point of 111 to 113 °C.

As to `COC(=O)c1ccc(O)c(C(=O)CC(=O)c2ccccc2OCc2ccccc2)c1`, the melting point fell in the range of 95 to 97 °C.

Take `O=C(NC(=O)c1ccccc1Cl)Nc1ccc(C(F)(F)F)cc1`: the melting point is 214 °C.

Turning to `Brc1ccc(OC2CN(C(c3ccccc3)c3ccccc3)C2)cc1`, the melting point was 116 to 117 °C.

As for `COc1cc(CNC(=S)NC(COC(=O)C(C)(C)C)Cc2ccc(C)c(C)c2)ccc1O` (stereo not drawn), the melting point lay in the range of 43 to 48 °C.

The molecule `CC(=O)N(C)C(CCCC(=O)O)C(=O)N(C)c1c(I)cc(I)c(C(=O)O)c1I` (stereo not drawn) registered a melting point of 194 to 204 °C.

Molecule `CN(C)Cc1c(Cl)nc(-c2ccccc2)c2ccccc12` had a melting point of 75 to 77 °C.

On to `COc1ccc(Nc2cc(-c3ccccc3)nc(N3CCC(O)CC3)n2)cc1Cl`, for which the melting point lay within 188 to 191 °C.

Molecule `CCCc1c2c(nc3cc(F)c(F)cc13)-c1cc3c(c(=O)n1C2)COC(=O)CC3(O)CC` (stereo not drawn) showed a melting point of 250 °C.

`Cc1nc(-c2n[nH]c(Cc3ccccc3)n2)sc1C(=O)NCc1ccccc1` had a melting point of 235 to 237 °C.

For the molecule `FC(F)(F)c1cccc(C2OC3(CCNCC3)N3CCCCC23)c1` (stereo not drawn), the melting point is 158 to 160 °C.

`CCC12CCC(=O)C=C1c1c(cc(OCC(=O)O)c(Cl)c1Cl)C2C` (stereo not drawn) had a melting point of 212 to 214 °C.

In turn, `Nc1ncc2c(=O)c(C(=O)ON3C(=O)CCC3=O)c[nH]c2n1` registered a melting point of over 300 °C.

Molecule `COc1cccc(Cn2c(-c3ccccc3)nc(Cl)c2CC(=O)O)c1` displayed a melting point of 135 to 138 °C.

The molecule `NC(=O)CN1CC2CCCCCC2C1=O` (stereo not drawn) returned a melting point of 145 to 147 °C.

In the case of `COc1ccc2cc(CN(C)C(=O)c3oc4ccccc4c3CCc3ccccc3)ccc2c1Br`, the melting point was in the range of 54 to 57 °C.

`CC(C)n1cnc2c(NCc3ccccc3)nc(Cl)nc21` yielded a melting point of 181 to 182 °C.

`c1ccc(Nc2nnc(-c3cccnc3)s2)cc1` had a melting point of 252 to 255 °C.

With `COC(=O)C1=C(c2cc(OC)c(OC)c(OC)c2)c2ccccc2S(=O)(=O)N1Cc1ccc2c(c1)OCO2`, the melting point was in the range of 182 to 183 °C.

For the molecule `O=[N+]([O-])c1cc(Cn2ccnc2)ccc1NCc1cccnc1`, the melting point turned out to be 171 °C.

In the case of `NS(=O)(=O)c1ccc2c(c1)C(=O)C1(CCOC1=O)S2` (stereo not drawn), the melting point is 199 to 201 °C.

In the case of `O=c1c2cc(F)c(F)cc2nc(CSc2ncnc3[nH]cnc23)n1-c1ccccc1Cl`, the melting point came out at 208 °C.

As to `C=Cc1cccc(-c2nc(CCOc3ccc(OC(C)(C)C(=O)O)cc3)c(C)o2)c1`, the melting point fell in the range of 137 to 139 °C.

For the molecule `CCCOc1ccccc1-c1nc2c(CCCc3ccccc3)cccc2c(=O)[nH]1`, the melting point is 89 °C.

`OCCc1c[nH]c2cc(-c3cc(Nc4ccc(N5CCOCC5)cn4)c4nccn4c3)ccc12` displayed a melting point of 159 to 161 °C.

Turning to `CC(C)(C)Oc1ccc(C(=O)N[C@H]2CC[C@H](CCN3CCC(c4cccc5c4CCO5)CC3)CC2)cc1`, the melting point was determined as 216 °C.

Molecule `CON(C)C(=O)c1ocnc1C` yielded a melting point of 59 to 60 °C.

As for `CNc1c2c(nc3ccccc13)CCCC2O` (stereo not drawn), the melting point was in the range of 160 to 161 °C.

`CCn1ncnc1COc1nn2c(-c3ccccc3F)nncc2c1-c1ccsc1`: the melting point fell in the range of 187 to 193 °C.

As to `CCc1cc2c(-c3ccccc3OC)c(NC(=O)Nc3cc(C)c(OC(C)=O)c(C)c3)cnc2s1`, the melting point lay within 217 to 218 °C.

Molecule `O=S(=O)(Nc1ccccc1COc1cccc2cccnc12)c1cccc(C(F)(F)F)c1` gave a melting point of 120 to 121 °C.

Turning to `O=C(c1sccc1-n1cccc1)N1CCCCC1`, the melting point is 126 °C.

`OCC1Cc2sccc2CN1` (racemic): the melting point was 110 °C.

On to `O=C(NCCCCCCCNC(=O)c1ccc(OC(Cl)(Cl)Cl)cc1)c1ccc(OC(Cl)(Cl)Cl)cc1`, for which the melting point is 152 to 153 °C.

On to `O=C(CBr)c1cccc(Nc2ccc3ccccc3n2)c1`, for which the melting point lay within 151 to 152 °C.

For the molecule `Nc1ccccc1-c1nc2ccccc2c(=O)o1`, the melting point was 163 to 165 °C.

With `C=C(C)CC1(OC=C(C)C)CC=C(C)C(NC=O)=C1C` (stereo not drawn), the melting point stood at 109 °C.

Molecule `O=C1c2ccccc2C(=O)N1c1ccc2ccc(F)nc2n1` yielded a melting point of 245 °C.

As for `O=C1CCNc2c([N+](=O)[O-])cc(Cl)c(Cl)c21`, the melting point was in the range of 175 to 176 °C.

In turn, `Cc1cc(C(=O)O)cc(Cl)c1O` returned a melting point of 242 to 244 °C.

In turn, `Cc1cc(O)c(SCc2cccc(F)c2)c(=O)o1` showed a melting point of 124 °C.

The molecule `Cc1cnc(SCc2cc3c(cc2O)CCCO3)n1C` displayed a melting point of 139 to 140 °C.

Regarding `CCCCCCCCCCCCCCCCCCN=Cc1ccc(O)cc1`, the melting point was determined as 101 °C.

The molecule `CCCCCCCOc1ccc(-c2ccc(OCC(C)CC)nn2)cc1` (stereo not drawn) displayed a melting point of 91 °C.

With `CCNC(=O)N1c2ccccc2CCC1CN1CCN(c2cccc3[nH]ccc23)CC1` (stereo not drawn), the melting point was in the range of 109 to 112 °C.

For the molecule `CC(C)(C)Nc1c(Nc2ccc3cn[nH]c3c2)c(=O)c1=O`, the melting point lay within 183 to 185 °C.

For `CC(C)Cc1nc2ccc(C#N)cc2c(-c2ccccc2)c1CN`, the melting point lay within 128 to 130 °C.

As to `NN(Cc1nccs1)C1CCCN(C(=O)c2ccc(Nc3nccc(Nc4ccc(F)cc4)n3)cc2)C1` (stereo not drawn), the melting point lay within 160 to 165 °C.

On to `O=C(O)Cc1cc2c(c(C(=O)O)c1)NC(C(F)(F)F)CC2` (stereo not drawn), for which the melting point fell in the range of 195 to 196 °C.

`CCOC(=O)/C(N)=C/C(=O)/C=C/c1ccc(Cl)cc1` registered a melting point of 105 to 107 °C.

For `CCNC(=O)c1ccc(N2CCN(Cc3cc(C)c4c(c3)NC(=O)C(C)O4)CC2)c(Cl)c1` (stereo not drawn), the melting point fell in the range of 227 to 228 °C.

In turn, `O=C1CNC(=O)C(Cc2cccc(NCc3ccccc3)c2)N1` (stereo not drawn) displayed a melting point of 160 to 161 °C.

`O=c1ccn([C@H]2C=C[C@@H](O)CC2)c(=O)[nH]1` (racemic) gave a melting point of 161 to 162 °C.

Turning to `CCN(C(=O)Nc1ccccc1)c1cccc(-c2ccc(CC3SC(=O)NC3=O)cc2)c1` (stereo not drawn), the melting point is 186 °C.

Take `CCN(CC)CCNC(=O)c1cnc2ccc(I)cc2c1F`: the melting point lay within 88 to 90 °C.

Molecule `Cc1ccc2ncn([C@H](C)[C@](O)(Cn3cncn3)c3ccc(F)cc3F)c(=O)c2c1` had a melting point of 189 to 190 °C.

In turn, `O=c1c2scc(Br)c2ncn1O` came in with a melting point of 244 to 247 °C.

`CCc1nc(C(=O)OC)c(Cl)c(N)c1F` came in with a melting point of 109 to 110 °C.

The molecule `CNc1nc(Cl)nc2cc(OC)c(OC)cc12` registered a melting point of 216 to 217 °C.

On to `CC(C)c1cccc(C(C)C)c1N=c1cccc(-c2cccc3ccccc23)[nH]1`, for which the melting point fell in the range of 142 to 144 °C.
